Measured values as given in patent US9493446B2, “Orexin receptor antagonists which are [ortho bi-(hetero-)aryl]-[2-(meta bi-(hetero-)aryl)-pyrrolidin-1-yl]-methanone derivatives” (Actelion Pharmaceuticals Ltd, priority 2012, dated 2016).

Tests used:
[1] = target: orexin-1 (Homo sapiens (Human), UniProt O43613); assay: Intracellular calcium measurement (FLIPR), CHO cells expressing human orexin-1 receptor, 3 nM orexin-A; assay type: cell-based; details: CHO cells expressing human orexin-1 receptor, FLIPR, 3 nM orexin-A; geometric mean if determined several times; read-out: IC50 OX1
Experimental: (§1) In Vitro Assay: Intracellular Calcium Measurements:
(§2) Chinese hamster ovary (CHO) cells expressing the human orexin-1 receptor and the human orexin-2 receptor, respectively, are grown in culture medium (Ham F-12 with L-Glutamine) containing 300 μg/mL G418, 100 U/mL penicillin, 100 μg/mL streptomycin and 10% heat inactivated fetal calf serum (FCS). The cells are seeded at 20,000 cells/well into 384-well black clear bottom sterile plates (Greiner). The seeded plates are incubated overnight at 37° C. in 5% CO2.
(§3) Human orexin-A as an agonist is prepared as 1 mM stock solution in MeOH: water (1:1), diluted in HBSS containing 0.1% bovine serum albumin (BSA), NaHCO3: 0.375 g/L and 20 mM HEPES for use in the assay at a final concentration of 3 nM.
(§4) Antagonists are prepared as 10 mM stock solution in DMSO, then diluted in 384-well plates using DMSO followed by a transfer of the dilutions into in HBSS containing 0.1% bovine serum albumin (BSA), NaHCO3: 0.375 g/L and 20 mM HEPES. On the day of the assay, 50 μL of staining buffer (HBSS containing 1% FCS, 20 mM HEPES, NaHCO3: 0.375 g/L, 5 mM probenecid (Sigma) and 3 μM of the fluorescent calcium indicator fluo-4 AM (1 mM stock solution in DMSO, containing 10% pluronic) is added to each well. The 384-well cell-plates are incubated for 50 min at 37° C. in 5% CO2 followed by equilibration at rt for 30 min before measurement.
(§5) Within the Fluorescent Imaging Plate Reader (FLIPR Tetra, Molecular Devices), antagonists are added to the plate in a volume of 10 μL/well, incubated for 120 min and finally 10 μL/well of agonist is added. Fluorescence is measured for each well at 1 second intervals, and the height of each fluorescence peak is compared to the height of the fluorescence peak induced by 3 nM orexin-A with vehicle in place of antagonist. […] Optimized conditions were achieved by adjustment of pipetting speed and cell splitting regime. The calculated IC50 values may fluctuate depending on the daily cellular assay performance. Fluctuations of this kind are known to those skilled in the art.

[2] = target: human orexin-2 receptor (Homo sapiens (Human), UniProt O43614); assay: Intracellular calcium measurement (FLIPR), CHO cells expressing human orexin-2 receptor, 3 nM orexin-A; assay type: cell-based; details: CHO cells expressing human orexin-2 receptor, FLIPR, 3 nM orexin-A; geometric mean if determined several times; read-out: IC50 OX2
Experimental: as §1, §2, §3, §4, §5

Chain of orexin-1 (O43613 whole entry): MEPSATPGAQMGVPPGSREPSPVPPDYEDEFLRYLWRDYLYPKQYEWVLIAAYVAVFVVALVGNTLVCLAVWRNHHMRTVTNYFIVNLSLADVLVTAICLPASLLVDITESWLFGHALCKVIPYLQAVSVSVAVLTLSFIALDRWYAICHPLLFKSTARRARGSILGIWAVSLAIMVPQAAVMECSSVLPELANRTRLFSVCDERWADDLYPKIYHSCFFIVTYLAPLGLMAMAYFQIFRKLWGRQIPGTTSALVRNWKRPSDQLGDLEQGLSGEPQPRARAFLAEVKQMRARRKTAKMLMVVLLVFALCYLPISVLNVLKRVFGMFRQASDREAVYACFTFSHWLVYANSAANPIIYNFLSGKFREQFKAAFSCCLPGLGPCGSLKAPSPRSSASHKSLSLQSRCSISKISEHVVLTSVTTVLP
Chain of human orexin-2 receptor (O43614 whole entry): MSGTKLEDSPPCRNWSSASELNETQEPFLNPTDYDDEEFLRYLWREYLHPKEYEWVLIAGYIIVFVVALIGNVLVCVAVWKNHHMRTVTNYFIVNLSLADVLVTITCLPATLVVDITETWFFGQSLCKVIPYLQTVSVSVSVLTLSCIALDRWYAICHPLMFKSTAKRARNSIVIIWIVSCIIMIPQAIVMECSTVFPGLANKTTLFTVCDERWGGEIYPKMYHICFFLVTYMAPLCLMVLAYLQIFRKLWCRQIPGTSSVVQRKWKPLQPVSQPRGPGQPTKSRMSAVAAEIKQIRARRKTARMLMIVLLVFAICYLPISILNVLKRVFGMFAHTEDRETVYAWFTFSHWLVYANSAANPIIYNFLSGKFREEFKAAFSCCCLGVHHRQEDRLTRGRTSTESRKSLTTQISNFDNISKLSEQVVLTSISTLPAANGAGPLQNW

Row | Compound | IC50 [1] [µM] | IC50 [2] [µM]
1 | COc1cccc(-c2nnc([C@@H]3CCCN3C(=O)c3cc(C)ccc3-n3nccn3)o2)c1 [Example 456, {(S)-2-[5-(3-Methoxy-phenyl)-[1,3,4]oxadiazol-2-yl]-pyrrolidin-1-yl}-(5-methyl-2-[1,2,3]triazol-2-yl-phenyl)-methanone] | 1.74 | 0.536
2 | COc1ccc(-c2nnc([C@@H]3CCCN3C(=O)c3cc(C)ccc3-n3nccn3)o2)cc1 [Example 457, {(S)-2-[5-(4-Methoxy-phenyl)-[1,3,4]oxadiazol-2-yl]-pyrrolidin-1-yl}-(5-methyl-2-[1,2,3]triazol-2-yl-phenyl)-methanone] | 17 | 3.44
3 | Cc1ccc(-n2nccn2)c(C(=O)N2CCC[C@H]2c2nnc(-c3ccccc3OC(F)(F)F)s2)c1 [Example 458, (5-Methyl-2-[1,2,3]triazol-2-yl-phenyl)-{(S)-2-[5-(2-trifluoromethoxy-phenyl)-[1,3,4]thiadiazol-2-yl]-pyrrolidin-1-yl}-methanone] | 0.176 | 0.112
4 | Cc1ccc(-n2nccn2)c(C(=O)N2CCC[C@H]2c2nc(-c3ccccc3)co2)c1 [Example 459, (5-Methyl-2-[1,2,3]triazol-2-yl-phenyl)-[(S)-2-(4-phenyl-oxazol-2-yl)-pyrrolidin-1-yl]-methanone] | 0.129 | 0.295
5 | Cc1ccc(-n2nccn2)c(C(=O)N2CCC[C@H]2c2nc(-c3ccccc3OC(F)(F)F)co2)c1 [Example 460, (5-Methyl-2-[1,2,3]triazol-2-yl-phenyl)-{(S)-2-[4-(2-trifluoromethoxy-phenyl)-oxazol-2-yl]-pyrrolidin-1-yl}-methanone] | 0.01 | 0.016
6 | Cc1ccc(-n2nccn2)c(C(=O)N2CCC[C@H]2c2ncc(-c3ccccc3)o2)c1 [Example 461, (5-Methyl-2-[1,2,3]triazol-2-yl-phenyl)-[(S)-2-(5-phenyl-oxazol-2-yl)-pyrrolidin-1-yl]-methanone] | 0.115 | 0.465
7 | Cc1ccc(-n2nccn2)c(C(=O)N2CCC[C@H]2c2nnc(-c3ccccc3)[nH]2)c1 [Example 463, (5-Methyl-2-[1,2,3]triazol-2-yl-phenyl)-[(S)-2-(5-phenyl-4H-[1,2,4]triazol-3-yl)-pyrrolidin-1-yl]-methanone] | 0.704 | 0.209
8 | COc1ccccc1-c1nnc([C@@H]2CCCN2C(=O)c2cc(C)ccc2-n2nccn2)[nH]1 [Example 464, {(S)-2-[5-(2-Methoxy-phenyl)-4H-[1,2,4]triazol-3-yl]-pyrrolidin-1-yl}-(5-methyl-2-[1,2,3]triazol-2-yl-phenyl)-methanone] | 0.049 | 0.124
9 | Cc1cc(C)cc(-c2nnc([C@@H]3CCCN3C(=O)c3cc(C)ccc3-n3nccn3)[nH]2)c1 [Example 511, {(S)-2-[5-(3,5-Dimethyl-phenyl)-4H-[1,2,4]triazol-3-yl]-pyrrolidin-1-yl}-(5-methyl-2-[1,2,3]triazol-2-yl-phenyl)-methanone] | 0.642 | 0.113
10 | COc1ccccc1-c1cnc([C@@H]2CCCN2C(=O)c2cc(C)ccc2-n2nccn2)[nH]1 [Example 516, {(S)-2-[5-(2-Methoxy-phenyl)-1H-imidazol-2-yl]-pyrrolidin-1-yl}-(5-methyl-2-[1,2,3]triazol-2-yl-phenyl)-methanone] | 0.018 | 0.018
11 | Cc1ccc(-n2nccn2)c(C(=O)N2CCC[C@H]2c2cc(-c3ccccc3)n[nH]2)c1 [Example 530, (5-Methyl-2-[1,2,3]triazol-2-yl-phenyl)-[(S)-2-(5-phenyl-2H-pyrazol-3-yl)-pyrrolidin-1-yl]-methanone] | 0.386 | 0.222
12 | Cc1ccc(-n2nccn2)c(C(=O)N2CCC[C@H]2c2ncn(-c3ccccc3)n2)c1 [Example 535, (5-Methyl-2-[1,2,3]triazol-2-yl-phenyl)-[(S)-2-(1-phenyl-1H-[1,2,4]triazol-3-yl)-pyrrolidin-1-yl]-methanone] | 0.047 | 0.363
13 | Cc1ccc(-n2nccn2)c(C(=O)N2CCC[C@H]2c2cn(-c3ccccc3)nn2)c1 [Example 536, (5-Methyl-2-[1,2,3]triazol-2-yl-phenyl)-[(S)-2-(1-phenyl-1H-[1,2,3]triazol-4-yl)-pyrrolidin-1-yl]-methanone] | 3.43 | 2.14
14 | C[C@@]1(c2nc(-c3ccccc3)no2)CCCN1C(=O)c1ccccc1-n1nccn1 [Example 537, [(S)-2-Methyl-2-(3-phenyl-[1,2,4]oxadiazol-5-yl)-pyrrolidin-1-yl]-(2-[1,2,3]triazol-2-yl-phenyl)-methanone] | 3.98 | 2.88
15 | Cc1ccc(-n2nccn2)c(C(=O)N2CCC[C@@]2(C)c2nc(-c3ccccc3)no2)c1 [Example 540, [(S)-2-Methyl-2-(3-phenyl-[1,2,4]oxadiazol-5-yl)-pyrrolidin-1-yl]-(5-methyl-2-[1,2,3]triazol-2-yl-phenyl)-methanone] | 0.211 | 0.581
16 | Cc1ccc(-n2nccn2)c(C(=O)N2CCC[C@@]2(C)c2nc(-c3cccc(Cl)c3C)no2)c1 [Example 541, {(S)-2-[3-(3-Chloro-2-methyl-phenyl)-[1,2,4]oxadiazol-5-yl]-2-methyl-pyrrolidin-1-yl}-(5-methyl-2-[1,2,3]triazol-2-yl-phenyl)-methanone] | 0.104 | 0.114

Row | Compound | IC50 [1] [µM] | IC50 [2] [µM]
17 | Cc1ccc(-n2nccn2)c(C(=O)N2CCC[C@@]2(C)c2nnc(-c3ccccc3OC(F)(F)F)[nH]2)c1 [Example 542, (5-Methyl-2-[1,2,3]triazol-2-yl-phenyl)-{(S)-2-methyl-2-[5-(2-trifluoromethoxy-phenyl)-4H-[1,2,4]triazol-3-yl]-pyrrolidin-1-yl}-methanone] | 0.033 | 0.028
18 | O=C(c1cccs1)N1CCC[C@H]1c1nc(-c2ccccc2)no1 [Ref 1] | > 8.5 | > 10
19 | O=C(c1cccs1)N1CCC[C@H]1c1nc(-c2cccc(Cl)c2)no1 [Ref 2] | 4.26 | 7.23
20 | Cc1ccccc1-c1noc([C@@H]2CCCN2C(=O)c2cccs2)n1 [Ref 3] | 6.27 | > 10
21 | O=C(c1ccoc1)N1CCC[C@H]1c1nc(-c2ccccc2)no1 [Ref 4] | > 8.5 | > 10
22 | O=C(c1ccoc1)N1CCC[C@H]1c1nc(-c2cccc(Cl)c2)no1 [Ref 5] | > 8.5 | > 10
23 | Cc1ccccc1-c1noc([C@@H]2CCCN2C(=O)c2ccoc2)n1 [Ref 6] | > 8.5 | > 10
24 | Cc1onc(-c2ccccc2Cl)c1C(=O)N1CCC[C@H]1c1nc(-c2cccc(Cl)c2C)no1 [Ref 7] | 0.529 | 0.593
25 | Cc1onc(-c2ccccc2Cl)c1C(=O)N1CCC[C@H]1c1noc(-c2cccc(Cl)c2C)n1 [Ref 8] | > 26.2 | > 21.8
26 | Cc1onc(-c2ccccc2Cl)c1C(=O)N1CCC[C@H]1c1nnc(-c2cccc(Cl)c2C)o1 [Ref 9] | 11.1 | > 21.8
27 | Cc1onc(-c2ccccc2Cl)c1C(=O)N1CCC[C@H]1c1nc(-c2ccccc2OC(F)(F)F)no1 [Ref 10] | 0.782 | 2.19
28 | Cc1cc(C)cc(-c2noc([C@@H]3CCCN3C(=O)c3cc(C)ccc3-n3nccn3)n2)c1 [compound 11, {(S)-2-[3-(3,5-Dimethyl-phenyl)-[1,2,4]oxadiazol-5-yl]-pyrrolidin-1-yl}-(5-methyl-2-[1,2,3]triazol-2-yl-phenyl)-methanone] | 0.058 | 0.006
29 | Cc1cc(C)nc(-c2noc([C@@H]3CCCN3C(=O)c3cc(C)ccc3-n3nccn3)n2)c1 [compound 12, {(S)-2-[3-(4,6-Dimethyl-pyridin-2-yl)-[1,2,4]oxadiazol-5-yl]-pyrrolidin-1-yl}-(5-methyl-2-[1,2,3]triazol-2-yl-phenyl)-methanone] | 0.796 | 0.816
30 | Cc1ccc(-n2nccn2)c(C(=O)N2CCC[C@H]2c2nc(-c3cccc(C)c3C)no2)c1 [compound 13, {(S)-2-[3-(2,3-Dimethyl-phenyl)-[1,2,4]oxadiazol-5-yl]-pyrrolidin-1-yl}-(5-methyl-2-[1,2,3]triazol-2-yl-phenyl)-methanone] | 0.07 | 0.013
31 | Cc1ccc(-n2nccn2)c(C(=O)N2CCC[C@H]2c2nc(-c3cccc(F)c3)no2)c1 [compound 14, {(S)-2-[3-(3-Fluoro-phenyl)-[1,2,4]oxadiazol-5-yl]-pyrrolidin-1-yl}-(5-methyl-2-[1,2,3]triazol-2-yl-phenyl)-methanone] | 0.392 | 0.295
